Results as given in patent US20180333382A1, “PHARMACEUTICAL COMPOSITIONS COMPRISING DGLA AND USE OF SAME” (DS Biopharma Limited, priority 2017, published 2018).

Tested on: patients with moderate to severe atopic dermatitis
Assay: Phase II study of oral DS107G vs placebo: IGA, EASI, SCORAD, pruritus VAS, BSA, POEM, DLQI
Format: in vivo, human
Set-up: key to EASI, Actual, Median / EASI, Actual, Mean: EASI composite score, range 0-72
Conditions: for Percentage Change of BSA Levels From Baseline, Mean / Percentage Change of DLQI Scores From Baseline, Mean / Percentage Change of EASI Scores From Baseline, Mean / Percentage Change of IGA Scores From Baseline, Mean / Percentage Change of POEM Scores From Baseline, Mean / Percentage Change of SCORAD Levels From Baseline, Mean / Percentage Change of VAS Scores From Baseline, Mean: ITT Population
Description: A randomized, double-blind, placebo-controlled, phase II study was performed to assess the efficacy and safety of orally administered DS107G (DGLA) to patients with moderate to severe atopic dermatitis. The primary objective of the study was to compare the efficacy of orally administered DS107G capsules, versus placebo, in the treatment of adult patients with moderate to severe atopic dermatitis. The secondary objective was to assess the safety of orally administered DS107G capsules, versus placebo, in adult patients with moderate to severe atopic dermatitis. The primary study endpoint was the proportion of patients achieving an IGA (Investigator Global Assessment) of 0 (clear) or 1 (almost clear) and a decrease of at least 2 points in IGA at week 8. Secondary study endpoints included:
Approximately 100 patients with moderate to severe atopic dermatitis were included in this multicenter, double-blind, placebo controlled, phase IIa study. All subjects signed an informed consent and underwent screening for study eligibility. Subjects were randomized (1:1) at baseline visit to either receive oral DS107G 2 g or placebo, once daily for 8 weeks in a fasting state.
Subjects visited the clinic on 6 occasions: at screening, baseline, week 2, week 4, week 8 (end of treatment/early termination) and week 10 (follow-up). All subjects exited the study at the week 10 visit. The primary efficacy variable was the proportion of patients achieving an IGA of 0 (clear) or 1 (almost clear), and a decrease of at least 2 points in IGA at week 8. Secondary efficacy variables included: IGA at other visits, pruritus (obtained from the SCORAD visual analog scale), EASI, BSA, POEM, DLQI, SCORAD and TEWL (for selected sites only). Safety was assessed through adverse events, physical examination, vital signs and safety laboratory tests (including pregnancy tests for women of childbearing potential). Pharmacokinetic samples were obtained at Baseline (Day 0), week 4 and week 8 visits in order to measure total and free DGLA plasma trough levels. Separate plasma samples were retained for later analysis of total fatty acid profile and interleukin profile.
The EASI is a composite score ranging from 0-72 that takes into account the degree of erythema, induration/papulation, excoriation, and lichenification (each scored from 0 to 3 separately) for each of four body regions, with adjustment for the percent of BSA involved for each body region and for the proportion of the body region to the whole body. A detailed procedure of EASI score calculation is provided below.
SCORAD is calculated as follows: Six items (erythema, edema/papulation, oozing/crusts, excoriation, lichenification, and dryness) are selected to evaluate the AD severity. The intensity of each item is graded using a 4-point scale: • 0=No symptoms • 1=Mild • 2=Moderate • 3=Severe
Investigator's global assessment is determined as follows:
Body Surface Area (BSA). The overall BSA affected by AD will be evaluated (from 0 to 100%) at each visit. One patient's palm represents 1% of his/her total BSA. For all study visits, except at screening, the BSA of involved skin will be measured with the SCORAD measurement and evaluated as a separate endpoint.
The Patient-Oriented Eczema Measure (POEM) is determined using the following questionnaire:
The Dermatology Life Quality Index (DLQI) is determined using the following questionnaire:
Subjects who fulfilled all the inclusion and none of the exclusion criteria were accepted in the study. Each subject read and signed an informed consent form prior to any screening procedures being performed. This study involved a comparison of DS107G (DGLA) with placebo, administered orally once daily upon waking for a total duration of 8 weeks. Subjects were randomized to one of the two treatment groups in a 1:1 ratio:
The Investigator's Global Assessment (IGA) of Disease Severity was assessed at each visit. The IGA is a global assessment of the current state of the disease. […]

[1] = DS107 Phase 2a I.T.T. population, daily, 8 weeks
[2] = Table 9A: title Week 4, head Week 8/ET, n=34
[3] = Table 9A: title Week 4, head Week 8/ET, n=35
[4] = Week 8, ITT total population, N=51
[5] = Week 8, ITT, Moderate at baseline
[6] = Week 8, ITT, Very Severe/Severe at baseline
[7] = Week 8/ET, DS107G 2 g once daily, n=35
[8] = total study population, oral, once daily, 8 weeks

What does the source list for `CCCCC/C=C\C/C=C\C/C=C\CCCCCCC(=O)O` [DS107G, Dihomo gamma linolenic acid]?
patients classified as Responders (IGA 0 or 1 at Week 8, 2-point decrease) (African America patients): 56%; patients classified as Responders (IGA 0 or 1 at Week 8, 2-point decrease) (Caucasian patients): 7%; BSA Change from Baseline [1]: −38%; EASI Percentage Change from Baseline [1]: −46%; EASI-50 (%) [1]: 57%; EASI-75 (%) [1]: 37%; IGA responder (%) [1]: 21%; Pruritus Percentage Change from Baseline [1]: −41%; Percentage Change of BSA Levels From Baseline, Mean (Week 2): −6.3%; Percentage Change of DLQI Scores From Baseline, Mean (Week 2): −29.5%; Percentage Change of EASI Scores From Baseline, Mean (Week 2): −15.0%; Percentage Change of IGA Scores From Baseline, Mean (Week 2): −11.7%; Percentage Change of POEM Scores From Baseline, Mean (Week 2): −30.2%; Percentage Change of SCORAD Levels From Baseline, Mean (Week 2): −12.0%; Percentage Change of VAS Scores From Baseline, Mean (Week 2): −20.9%; Percentage Change of BSA Levels From Baseline, Mean (Week 4): −21.9%; Percentage Change of DLQI Scores From Baseline, Mean (Week 4): −50.3%; Percentage Change of EASI Scores From Baseline, Mean (Week 4): −37.7%; Percentage Change of IGA Scores From Baseline, Mean (Week 4): −25.7%; Percentage Change of POEM Scores From Baseline, Mean (Week 4): −41.8%; Percentage Change of SCORAD Levels From Baseline, Mean (Week 4): −28.8%; Percentage Change of VAS Scores From Baseline, Mean (Week 4): −39.5%; Percentage Change of BSA Levels From Baseline, Mean (Week 8): −38.2%; Percentage Change of DLQI Scores From Baseline, Mean (Week 8): −43.2%; Percentage Change of EASI Scores From Baseline, Mean (Week 8): −45.6%; Percentage Change of IGA Scores From Baseline, Mean (Week 8): −38.4%; Percentage Change of POEM Scores From Baseline, Mean (Week 8): −37.2%; Percentage Change of SCORAD Levels From Baseline, Mean (Week 8): −36.1%; Percentage Change of VAS Scores From Baseline, Mean (Week 8): −41.0%; Percentage Change of BSA Levels From Baseline, Mean (Week 10): −37.7%; Percentage Change of DLQI Scores From Baseline, Mean (Week 10): −53.6%; Percentage Change of EASI Scores From Baseline, Mean (Week 10): −49.5%; Percentage Change of IGA Scores From Baseline, Mean (Week 10): −37.5%; Percentage Change of POEM Scores From Baseline, Mean (Week 10): −43.4%; Percentage Change of SCORAD Levels From Baseline, Mean (Week 10): −40.5%; Percentage Change of VAS Scores From Baseline, Mean (Week 10): −44.2%; primary end point (two point drop in IGA and end of treatment IGA of 0 or 1) vs placebo (ITT analysis, p=0.057): clinically significant trend; visual analog scale of pruritus, Change from baseline, LSMEANS [2]: −2.1; visual analog scale of pruritus, Change from baseline, Mean [2]: −2.8; visual analog scale of pruritus, Change from baseline, Median [2]: −2.0; visual analog scale of pruritus, Percent Change from Baseline, Mean [2]: −41.0%; visual analog scale of pruritus, Percent Change from Baseline, Median [2]: −35.3%; visual analog scale of pruritus, Actual, Mean [3]: 4.6; visual analog scale of pruritus, Actual, Median [3]: 4.0; visual analog scale of pruritus, Change from baseline, LSMEANS (Table 9B: Week 8/ET, n=34): −2.1; visual analog scale of pruritus, Change from baseline, Mean (Table 9B: Week 8/ET, n=34): −2.8; visual analog scale of pruritus, Change from baseline, Median (Table 9B: Week 8/ET, n=34): −2.0; visual analog scale of pruritus, Percent Change from Baseline, Mean (Table 9B: Week 8/ET, n=34): −41.0%; visual analog scale of pruritus, Percent Change from Baseline, Median (Table 9B: Week 8/ET, n=34): −35.3%; visual analog scale of pruritus, Actual, Mean (Table 9B: Week 8/ET, n=35): 4.6; visual analog scale of pruritus, Actual, Median (Table 9B: Week 8/ET, n=35): 4.0; IGA score 0—Clear [4]: 4 ( 7.8) n (%); IGA score 1—Almost Clear [4]: 7 ( 13.7) n (%); IGA score 2—Mild [4]: 9 ( 17.6) n (%); IGA score 3—Moderate [4]: 10 ( 19.6) n (%); IGA score 4—Severe [4]: 4 ( 7.8) n (%); IGA score 5—Very Severe [4]: 1 ( 2.0) n (%); Non-Responders [4]: 37 ( 72.5) n (%); Responders (decrease of at least 2 points in IGA score at Week 8) [4]: 14 ( 27.5) n (%); IGA score 0—Clear [5]: 4 (13.8) n (%); IGA score 1—Almost Clear [5]: 4 (13.8) n (%); IGA score 2—Mild [5]: 6 (20.7) n (%); IGA score 3—Moderate [5]: 4 (13.8) n (%); IGA score 4—Severe [5]: 1 (3.4) n (%); IGA score 5—Very Severe [5]: 0 (0.0) n (%); Non-Responders [5]: 21 (72.4) n (%); Responders [5]: 8 (27.6) n (%); IGA score 0—Clear [6]: 0 (0.0) n (%); IGA score 1—Almost Clear [6]: 3 (13.6) n (%); IGA score 2—Mild [6]: 3 (13.6) n (%); IGA score 3—Moderate [6]: 6 (27.3) n (%); IGA score 4—Severe [6]: 3 (13.6) n (%); IGA score 5—Very Severe [6]: 1 (4.5) n (%); Non-Responders [6]: 16 (72.7) n (%); Responders [6]: 6 (27.3) n (%); EASI, Actual, Mean [7]: 9.3; EASI, Actual, Median [7]: 7.4; EASI, Change from baseline, LSMEANS (ANCOVA) [7]: −8.0; EASI, Change from baseline, Mean [7]: −9.4; EASI, Change from baseline, Median [7]: −8.0; EASI, Percent Change from Baseline, Mean [7]: −45.6%; EASI, Percent Change from Baseline, Median [7]: −62.7%; SCORAD, Change from baseline, LSMEANS (Week 8/ET, n=34): −18.7; SCORAD, Change from baseline, Mean (Week 8/ET, n=34): −21.1; SCORAD, Change from baseline, Median (Week 8/ET, n=34): −21.2; SCORAD, Percent Change from Baseline, Mean (Week 8/ET, n=34): −36.1%; SCORAD, Percent Change from Baseline, Median (Week 8/ET, n=34): −43.4%; SCORAD, Actual, Mean (Week 8/ET, n=35): 35.9; SCORAD, Actual, Median (Week 8/ET, n=35): 28.6; body surface area affected by atopic dermatitis, Actual, Mean (Week 8/ET, n=35): 17.6; body surface area affected by atopic dermatitis, Actual, Median (Week 8/ET, n=35): 12.0; body surface area affected by atopic dermatitis, Change from baseline, LSMEANS (Week 8/ET, n=35): −8.9; body surface area affected by atopic dermatitis, Change from baseline, Mean (Week 8/ET, n=35): −9.6; body surface area affected by atopic dermatitis, Change from baseline, Median (Week 8/ET, n=35): −8.0; body surface area affected by atopic dermatitis, Percent Change from Baseline, Mean (Week 8/ET, n=35): −38.2%; body surface area affected by atopic dermatitis, Percent Change from Baseline, Median (Week 8/ET, n=35): −50.0%; response rate in subjects having low baseline eosinophil counts (in vivo): higher response rate; primary end point (two point drop in IGA and end of treatment IGA of 0 or 1) vs placebo (moderate patient subgroup (n=67), p=0.036): statistically significant improvement; EASI (% decrease) [8]: 46%; IGA responders (%) [8]: 22%; Pruritus delta (as measured by VAS) [8]: 41%; Pruritus score decrease (as measured by VAS) [8]: c. (2.8); SCORAD (% decrease) [8]: 36%; pruritus score [visual analog scale] vs placebo (within four weeks of dosing, p=0.015): statistically significant reduction of itch
